Laboratory results published in patent publication US7572606B1 (Nereus Pharmaceuticals, Inc., priority 2005, dated 2009).
Where two headings read alike, the source gives them in different places.

Experiments:
[1] = tested on: LeTx-induced cytotoxicity of RAW264.7 cells; assay: cells; type: cell-based, murine
[2] = tested on: IκBα in HEK293 cells and NF-κB/Luc 293 reporter clone; assay: Western blot of phosphorylated and total IκBα; type: cell-based, human; conditions: 50 and 500 nM, 1 hour pretreatment, TNF-α 30 minutes
Experimental: Endogenous protein levels were assessed in both HEK293 cells and the NF-κB/Luc 293 reporter clone.
Antibodies against total and phosphorylated forms of IκBα were used to determine the endogenous level of each protein and anti-Tubulin antibody was used to confirm equal loading of protein.

[3] = tested on: UACC-62; assay: NCI 60 cell line screen, sulforhodamine B, 48 h; type: cell-based, human
Experimental: (§1) A detailed description of the screening procedure can be found at hypertext transfer protocol (http://) “dtp.nci.nih.gov/branches/btb/ivclsp.html.”
(§2) In brief, each of the 60 human tumor cell lines were grown in RPMI 1640 medium, supplemented with 5% fetal bovine serum and 2 mM L-glutamine. Cells were plated at their appropriate density in 96-well microtiter plates and incubated at 37° C., 5% CO2, 95% air and 100% relative humidity. […] Cells were incubated for an additional 48 hours and a sulforhodamine B protein assay was used to estimate cell viability or growth.

[4] = tested on: ACHN; assay: NCI 60 cell line screen, sulforhodamine B, 48 h; type: cell-based, human; conditions: Renal Cancer
Experimental: as §1, §2

[5] = tested on: HCT-15; assay: NCI 60 cell line screen, sulforhodamine B, 48 h; type: cell-based, human
Experimental: as §1, §2

[6] = tested on: OVCAR-8; assay: NCI 60 cell line screen, sulforhodamine B, 48 h; type: cell-based, human; conditions: OVCAR-8, Ovarian Cancer
Experimental: as §1, §2

[7] = tested on: HDP-62; assay: NCI 60 cell line screen, sulforhodamine B, 48 h; type: cell-based, human; conditions: HDP-62, Non-Small Cell Lung Cancer
Experimental: as §1, §2

[8] = tested on: HCI-H23; assay: NCI 60 cell line screen, sulforhodamine B, 48 h; type: cell-based, human; conditions: HCI-H23, Non-Small Cell Lung Cancer
Experimental: as §1, §2

[9] = tested on: T-47D; assay: NCI 60 cell line screen, sulforhodamine B, 48 h; type: cell-based, human
Experimental: as §1, §2

[10] = tested on: OVCAR-3; assay: NCI 60 cell line screen, sulforhodamine B, 48 h; type: cell-based, human; conditions: OVCAR-3, Ovarian Cancer
Experimental: as §1, §2

[11] = tested on: TK-10; assay: NCI 60 cell line screen, sulforhodamine B, 48 h; type: cell-based, human; conditions: TK-10, Renal Cancer
Experimental: as §1, §2

[12] = tested on: K-562; assay: NCI 60 cell line screen, sulforhodamine B, 48 h; type: cell-based, human; conditions: K-562, Leukemia
Experimental: as §1, §2

[13] = tested on: MCF7; assay: NCI 60 cell line screen, sulforhodamine B, 48 h; type: cell-based, human; conditions: MCF7, Breast Cancer
Experimental: as §1, §2

[14] = tested on: NCVADR-RES; assay: NCI 60 cell line screen, sulforhodamine B, 48 h; type: cell-based, human
Experimental: as §1, §2

[15] = tested on: SNB-19; assay: NCI 60 cell line screen, sulforhodamine B, 48 h; type: cell-based, human
Experimental: as §1, §2

[16] = tested on: HCC-2998; assay: NCI 60 cell line screen, sulforhodamine B, 48 h; type: cell-based, human
Experimental: as §1, §2

[17] = tested on: CCRF-CEM; assay: NCI 60 cell line screen, sulforhodamine B, 48 h; type: cell-based, human; conditions: Leukemia
Experimental: as §1, §2

[18] = tested on: SK-OV-3; assay: NCI 60 cell line screen, sulforhodamine B, 48 h; type: cell-based, human; conditions: SK-OV-3, Ovarian Cancer
Experimental: as §1, §2

[19] = tested on: p21 and p27 in HEK293 cells and HEK293 NF-κB/Luciferase reporter clone; assay: Western blot of cell cycle regulatory proteins; type: cell-based, human; conditions: various concentrations, preliminary results
Text: The ubiquitin-proteasome pathway is an essential proteolytic system involved in cell cycle control by regulating the degradation of cyclins and cyclin-dependent kinase (Cdk) inhibitors such as p21 and p27. Pagano, et al., Science 269:682 (1995), Kisselev, et al., Chem Biol 8:739 (2001), King, et al., Science 274:1652 (1996). Furthermore, p21 and p27 protein levels are increased in the presence of proteasome inhibitors. Fukuchi, et al., Biochim Biophys Acta 1451:206 (1999), Takeuchi, et al., Jpn J Cancer Res 93:774 (2002).
The Western blots presented in FIG. 33 were reprobed using antibodies against p21 and p27 to determine the endogenous level of each protein and anti-Tubulin antibody was used to confirm equal loading of protein.

[20] = tested on: MIA PaCa-2; assay: Cell growth inhibition, resazurin, 48 h; type: cell-based; conditions: Homo sapiens; MIA PaCa-2, 48 h drug exposure
[21] = tested on: CCD-27sk; assay: Cytotoxic activity, 48 h, normal fibroblasts; type: cell-based; conditions: CCD-27sk normal human fibroblasts
[22] = tested on: PANC-1; assay: Cell growth inhibition, resazurin, 48 h; type: cell-based; conditions: Homo sapiens; PANC-1, 48 h drug exposure
[23] = tested on: MM.1R and Dox-40 cell lines, patient-derived multiple myeloma cells
[24] = tested on: RAW264.7 cells; conditions: 12 nM, compound alone

## C[C@@]12OC(=O)[C@]1([C@@H](O)[C@@H]1C=CCCC1)NC(=O)[C@@H]2CCCl [Formula II-16, Salinosporamide A]
[1]
  EC50: 3.6 nM
  cell-viability: 82%
  increase in the viability of LeTx-treated cells compared to LeTx treatment alone: 10 fold
[1]; Mus musculus, RAW264.7
  EC50: < 4 nM
[2]
  total IκBα and phospho-IκBα level: reduced the degradation of total IκBα but also retained the phospho-IκBα level
[3]; Homo sapiens, UACC-62, read-out: Log10 LC50 (converted)
  CC50: 91.2 nM
[3]; UACC-62, Melanoma
  Log10 G150: <-8.00 Molar
  Log10 TGI: <-8.00 Molar
[4]
  Log10 G150: <-8.00 Molar
  Log10 TGI: -5.27 Molar
[5]; HCT-15, Colon Cancer
  Log10 G150: <-8.00 Molar
  Log10 TGI: -6.06 Molar
[5]; Homo sapiens, HCT-15, read-out: Log10 LC50 (converted)
  CC50: 56200 nM
[6]
  Log10 G150: <-8.00 Molar
  Log10 TGI: -7.70 Molar
[7]
  Log10 G150: <-8.00 Molar
  Log10 TGI: -4.89 Molar
[8]
  Log10 G150: <-8.00 Molar
  Log10 TGI: -7.85 Molar
[9]; Homo sapiens, T47D, read-out: Log10 LC50 (converted)
  CC50: > 100000 nM
[9]; T-47D, Breast Cancer
  Log10 G150: <-8.00 Molar
  Log10 TGI: >-4.00 Molar
[10]
  Log10 G150: <-8.00 Molar
  Log10 TGI: -4.83 Molar
[11]
  Log10 G150: <-8.00 Molar
  Log10 TGI: -7.13 Molar
[12]
  Log10 G150: <-8.00 Molar
  Log10 TGI: -5.59 Molar
[13]
  Log10 G150: <-8.00 Molar
  Log10 TGI: >-4.00 Molar
[14]; Homo sapiens, 60 cell, read-out: Log10 LC50 (converted)
  CC50: 178 nM
[14]; NCVADR-RES, Breast Cancer
  Log10 G150: <-8.00 Molar
  Log10 TGI: <-8.00 Molar
[15]; Homo sapiens, SNB-19, read-out: Log10 LC50 (converted)
  CC50: > 100000 nM
[15]; SNB-19, CNS Cancer
  Log10 G150: <-8.00 Molar
  Log10 TGI: >-4.00 Molar
[16]; HCC-2998, Colon Cancer
  Log10 G150: <-8.00 Molar
  Log10 TGI: <-8.00 Molar
[16]; Homo sapiens, HCC 2998, read-out: Log10 LC50 (converted)
  CC50: 17.8 nM
[17]
  Log10 G150: <-8.00 Molar
  Log10 TGI: <-8.00 Molar
[18]
  Log10 G150: <-8.00 Molar
  Log10 TGI: <-8.00 Molar
[19]
  p21 and p27 protein levels: p21 and p27 protein levels were elevated
[20]
  EC50: 46 nM
[21]
  EC50: 196 nM
[22]
  EC50: 60 nM
[23]
  activity against drug resistant multiple myeloma: active against MM.1R and Doxorubicin-resistant Dox-40 cell lines
[24]
  viability: 96%
